Reference: the NIST ThermoML archive (doi:10.1021/je0501991)
± gives the expanded uncertainty stated by the source.

Columns and labels:
[1] = 101.33 kPa, Liquid
[2] = refractive index (Na D-line) (dimensionless); settings: 101.33 kPa, Liquid, Standard Abbe refractometry
[3] = molar heat capacity at constant pressure; xn = mol fraction of the nth substance listed; settings: Liquid, x1 = 1

**Q.** With `OCCCc1ccccc1` [3-phenyl-1-propanol] as the compound, how does the viscosity ([1]; 298.15 K) read?
**A.** 10.13 ± 0.17 mPa·s

**Q.** And the mass density ([1]; 308.15 K)?
**A.** 991.17 ± 0.53 kg/m3

**Q.** What about the refractive index ([2]; 308.15 K) of the same compound?
**A.** 1.521 ± 0.001

**Q.** For `C[S+](C)[O-]` [dimethyl sulfoxide], which viscosity ([1]; 298.15 K, Capillary tube (Ostwald / Ubbelohde) method) is on record?
**A.** 1.989 ± 0.023 mPa·s

**Q.** And the mass density ([1]; 298.15 K, Vibrating tube method)?
**A.** 1095.68 ± 0.09 kg/m3

**Q.** What about the viscosity ([1]; 308.15 K, Capillary tube (Ostwald / Ubbelohde) method) of the same compound?
**A.** 1.645 ± 0.019 mPa·s

**Q.** What about the mass density ([1]; 308.15 K, Vibrating tube method) of the same compound?
**A.** 1085.31 ± 0.09 kg/m3

**Q.** And the refractive index ([2]; 298.15 K)?
**A.** 1.4775 ± 0.0004

**Q.** And the refractive index ([2]; 308.15 K)?
**A.** 1.473 ± 0.0004

**Q.** With `C[S+](C)[O-]` [dimethyl sulfoxide] + OCCc1ccccc1 as the compound, how does the “molar heat capacity at constant pressure” value ([3]; 298.15 K, 101.33 kPa) read?
**A.** 142.7 ± 11 J/K/mol

**Q.** What about the “molar heat capacity at constant pressure” value ([3]; 308.15 K, 101.33 kPa) of the same compound?
**A.** 143.5 ± 12 J/K/mol

**Q.** And the “molar heat capacity at constant pressure” value ([3]; 318.15 K, 101.33 kPa)?
**A.** 144.6 ± 12 J/K/mol

**Q.** What does the source list for `OCc1ccccc1` [benzenemethanol]?
**A.** mass density ([1]; 298.15 K): 1041.65 ± 0.27 kg/m3; viscosity ([1]; 298.15 K): 5.211 ± 0.076 mPa·s; mass density ([1]; 308.15 K): 1033.66 ± 0.25 kg/m3; viscosity ([1]; 308.15 K): 4.125 ± 0.062 mPa·s; refractive index ([2]; 298.15 K): 1.5377 ± 0.0005; refractive index ([2]; 308.15 K): 1.535 ± 0.0005

**Q.** For `C[S+](C)[O-]` [dimethyl sulfoxide] + OCCCc1ccccc1, which “molar heat capacity at constant pressure” value ([3]; 298.15 K, 101 kPa) is on record?
**A.** 142.7 ± 11 J/K/mol

**Q.** What about the “molar heat capacity at constant pressure” value ([3]; 308.15 K, 101 kPa) of the same compound?
**A.** 143.5 ± 12 J/K/mol

**Q.** What about the “molar heat capacity at constant pressure” value ([3]; 318.15 K, 101 kPa) of the same compound?
**A.** 144.6 ± 12 J/K/mol

**Q.** Which “molar heat capacity at constant pressure” value ([3]; 298.15 K, 101.33 kPa) does the source give for `C[S+](C)[O-]` [dimethyl sulfoxide] + OCc1ccccc1 here?
**A.** 142.7 ± 11 J/K/mol

**Q.** What about the “molar heat capacity at constant pressure” value ([3]; 308.15 K, 101.33 kPa) of the same compound?
**A.** 143.5 ± 12 J/K/mol

**Q.** What about the “molar heat capacity at constant pressure” value ([3]; 318.15 K, 101.33 kPa) of the same compound?
**A.** 144.6 ± 12 J/K/mol

**Q.** Which results are given for `OCCc1ccccc1` [2-phenylethanol]?
**A.** mass density ([1]; 308.15 K): 1008.79 ± 0.54 kg/m3; viscosity ([1]; 308.15 K): 7.438 ± 0.12 mPa·s; refractive index ([2]; 308.15 K): 1.5267 ± 0.0008
